In brackets after ≈: the same amount, converted by molar mass. Several values for one entry are separate records, joined by “and”; a condition that tells them apart may be missing. Identical values can stand only once.
What was measured:
[1] = Pharmacokinetic study in beagle dogs; format: in vivo; settings: for BA: PO; for BA / Tmax / AUC(0-inf) / AUC(0-t) / Cmax / MRT last / half-life: beagle dogs
Text: Male beagle dogs were purchased from Marshall, Beijing, China. They were housed under controlled humidity, temperature, and a 12L:12D lighting schedule. Before the experiment, the animals were fed less than 300 g/day for 2 days and those with a body weight around 7.0 ± 0.5 kg were selected for the pharmacokinetic study (n = 3). They were fasted overnight before the experiments but allowed to drink water. This study was reviewed, assessed, and approved by the Institutional Animal Care and Use Committee (IACUC) of the Korea Institute of Toxicology (KIT). The project identification codes were N117008 and N116047, signed on 31 May 2017. For the experiments, 0.5-mL blood samples were collected from each animal at selected intervals and loaded into K2-EDTA tubes. After centrifugation at 13,200 rpm for 5 min, quantitative analysis was performed using LC-MS/MS. Acetic acid buffer (0.1 M) at pH 4.0 with 20% PEG400 was selected as the intravenous solution for ABN401 and WinNonlinTM (Version 5.2.1, Pharsight, USA) was used to calculate the pharmacokinetic parameters (i.e., T1/2: terminal half-life, Cmax: maximum observed peak concentration, Tmax: time to reach Cmax, AUClast: area under the time-concentration curve from zero to the last quantifiable time-point, AUCinf: area under the time-concentration curve from zero to infinity, MRTlast: mean residence time from zero to the last quantifiable time-point). The bioavailability (BA) of each dose was calculated using the following equation:Bioavailability = (AUClast_po/AUClast_iv) × 100(5)
HPLC system (Agilent 1200, Santa Clara, CA, USA), consisting of a binary pump, a degasser, and a refrigerated autosampler (at 10 °C), was used in this study. Analytical samples were separated on the Agilent Eclipse XDB-C18 (3.5 um, 2.1 × 50 mm) at 23 °C. The mobile phase was composed of solvent A (10 mM ammonium formate in purified water) and solvent B (0.1 % formic acid in acetonitrile) and delivered at a flow rate of 0.3 mL/min. In this study, the gradient separation (i.e., the initial condition of the mobile phase consisted of 80% of solvent A and 20% of solvent B, then solvent A was decreased to 0% within 2 min and maintained for 5 min, followed by an increase to 80% within 0.2 min, maintained until 10 min) was used with a 10-min run time per sample. The MS system was composed of an API 4000 Sciex triple quadruple mass spectrometer (AB Sciex, Framingham, MA, USA). The triple quadrupole mass spectrometer was equipped with a turbo ion spray source. The MS/MS detection involved multiple reaction-monitoring in the positive ionization mode. The intensive tracer ion mass for each compound was 567.5 → 467.2 for ABN401 and 237.3 → 194.11 for carbamazepine as an internal standard. The conditions for the electrospray interface were: curtain gas, 20 psi; collision gas, medium; ion spray voltage, 5000 V; temperature, 500°C; ion source gas 1, 50 psi and ion source gas 2, 55 psi. The optimized voltage parameters for the analytes were as follows: declustering potential (61 V), entrance potential (10 V), collision energy (28 V), and collision cell exit potential (12 V). Data acquisition, quantification, and calculations were performed with the Analyst software version 1.4.2 (AB Sciex, Framingham, MA, USA).

[2] = Polymorph stability by PXRD; format: physicochemical; settings: 40 °C/75% RH, 1 month open container and 3 months closed container
Method: PXRD patterns were measured at room temperature using a D8 Advance with a DAVINCI X-ray diffractometer (Bruker AXS GmbH, Karlsruhe, Germany) equipped with a Ni-filtered Cu-Kα radiation (λ = 1.54056 Å) and a high speed LynxEye detector. The powder samples were loaded onto a quartz holder and scanned over a range of 4–40° at a scanning rate of 6°/min.
The polymorphism of ABN401 was also investigated with physical stresses by heat and humidity.

[3] = pH solubility and pKa determination; format: physicochemical; settings: for solubility at 24 h: aqueous HCl/NaOH solution, aqueous buffer, thermodynamic from solid
Method: Solutions at pH values of 1 to 12 were prepared using HCl and NaOH. At first, 10^−1 N, 10^−2 N, 10^−3 N, 10^−4 N, 10^−5 N, and 10^−6 N of HCl and NaOH solutions were prepared and their pH values were measured with a pH meter (Metrohm 827 pH lab, Zurich, Switzerland). One milliliter of the 10^−4 N, 10^−5 N, and 10^−6 N of HCl and NaOH solutions was withdrawn and diluted in a 100 mL flask for more coordination. In each prepared solution (n = 3), excess ABN401 was dissolved and mixed for 24 h. All samples were centrifuged for 1 min at 12,000 rpm. The pH solubility of ABN401 was analyzed by HPLC and the pKa was determined by plotting a graph of log(solubility) against pH.

[4] = male, beagle, dog, plasma, iv, 1 mg/kg, mean ± SD
[5] = male, beagle, dog, plasma, po, 1 mg/kg, capsule with MCC, mean ± SD
[6] = male, beagle, dog, plasma, po, 5 mg/kg, capsule with MCC, mean ± SD
[7] = male, beagle, dog, plasma, po, 5 mg/kg, capsule without MCC, mean ± SD
[8] = male, beagle, dog, plasma, po, 10 mg/kg, capsule with MCC, mean ± SD

With `CN1CCN(Cc2ccc(-c3cnc(N4CCOC(Cn5nnc6ncc(-c7cnn(C)c7)nc65)C4)nc3)cc2)CC1` (stereo not shown) [ABN401] the BA ([1]; 1 mg/kg, capsule with MCC, mean ± SD) was 28.3 ± 15.8%, the BA ([1]; 5 mg/kg, capsule with MCC, mean ± SD) was 30.7% and 30.7 ± 1.7% and the BA ([1]; 5 mg/kg, capsule without MCC, mean ± SD) was 30.7% and 30.7 ± 15.1%. The BA ([1]; 10 mg/kg, capsule with MCC, mean ± SD) was 11.3 ± 2.7%, the Tmax ([1]; male, beagle, dog, plasma, iv, 1 mg/kg) was 0.083 h and the AUC(0-inf) [1, 4] was 287 ± 108 ng·h/mL. It also gave an AUC(0-t) [1, 4] of 266 ± 105 ng·h/mL, a Cmax [1, 4] of 308 ± 271 ng/mL and an MRT last [1, 4] of 1.5 ± 0.7 h. For the same molecule, the half-life [1, 4] was 1.9 ± 0.7 h, the AUC(0-inf) [1, 5] was 96.2 ± 40.7 ng·h/mL and the AUC(0-t) [1, 5] was 75.4 ± 42 ng·h/mL. For the same molecule, the Cmax [1, 5] was 8 ± 3.8 ng/mL, the MRT last [1, 5] was 7.6 ± 2.5 h and the Tmax [1, 5] was 1.3 ± 0.6 h. The half-life [1, 5] was 9.4 ± 3.2 h, the AUC(0-inf) [1, 6] was 456 ± 28.5 ng·h/mL and the AUC(0-t) [1, 6] was 409 ± 23 ng·h/mL. For the same molecule, the Cmax [1, 6] was 50.8 ± 12.4 ng/mL, the MRT last [1, 6] was 8.6 ± 2.7 h and the Tmax [1, 6] was 1.5 ± 0.7 h. It also gave a half-life [1, 6] of 7.6 ± 4.5 h, an AUC(0-inf) [1, 7] of 425 ± 218 ng·h/mL and an AUC(0-t) [1, 7] of 409 ± 201 ng·h/mL. For the same molecule, the Cmax [1, 7] was 60.3 ± 29.1 ng/mL, the MRT last [1, 7] was 6.4 ± 0.7 h and the Tmax [1, 7] was 2 h. It also gave a half-life [1, 7] of 4.9 ± 0.9 h, a Tmax ([1]; male, beagle, dog, plasma, po, 10 mg/kg, across the doses 1, 5, 10 mg/kg) of 1.3 to 2 h and an AUC(0-inf) [1, 8] of 424 ± 186 ng·h/mL. For the same molecule, the AUC(0-t) [1, 8] was 302 ± 72 ng·h/mL, the Cmax [1, 8] was 52.5 ± 13.5 ng/mL and the MRT last [1, 8] was 6.3 ± 3.4 h. For the same molecule, the Tmax [1, 8] was 2 h, the half-life [1, 8] was 7.7 ± 5.8 h and the bioavailability ([1]; male, beagle, dog, plasma, oral, dogs, except at 10 mg/kg) was about 30%. The change in polymorph [2] was “no change in its polymorph”, the pKa at 24 h ([3]; aqueous HCl and NaOH solutions, pH 1 to 12, from plot of log(solubility) against pH, read-out: apparent pKa) was 7.49 and the solubility at 24 h ([3]; above neutral pH) was at most 0.01 mg/mL. It also gave a solubility at 24 h ([3]; pH 2.28 (highest)) of 26.9 mg/mL (≈ 47.4 mM).
